For 53 compounds, EC50 results are on record in US20140336182A1, “Aurora Kinase Modulators and Method of Use” (Amgen Inc., priority 2013, published 2014).

One assay relates to HeLa cells. Briefly: HeLa cell 24 hr ploidy assay (DNA content). The assay is classed as cell-based. As to conditions: Homo sapiens, HeLa, 4N ploidy, average, read-out: 24h_4NPloidy EC50_IP (uM Avg). The protocol:
HeLa cell 24 hr ploidy assay protocol
The purpose of this assay is to evaluate the ability of selected individual compounds to induce Deoxyribonucleic acid (DNA) content (ploidy) in cells through failed cell division. Cell cycle analysis is a rapid and efficient way to evaluate the status of DNA content (ploidy) of a given cell. HeLa cells (1×10^4 HeLa cells/well) in 100 ul of media (MEM+10% FBS) were plated in 96-well plates (Packard View) and cultured for 24 hrs at 37° C. maintained in a 5% CO2 atmosphere. […] The compounds were serially diluted in DMSO (0.25% final concentration). The cells were fixed (3.7% Formaldehyde and 1% glutaraldehyde) and permeabilized (1×PBS with 1% BSA and 0.2% Triton X-100) in preparation for nuclear staining. The well plates were stained for 45 minutes at RT in the dark using Hoechest 33342 nuclear stain at 0.5 ug.ml (Stock of 10 mg/ml, Invitrogen, CA, Cat #H3570). The nuclear stain was removed by aspiration and the cells were washed with wash buffer. A Cellomics Array Scan Vti plate reader was used to acquire the DNA ploidy data of the cells using Cell Cycle bioapplication. Numbers for each of “valid cell count/well”, “% of 4N cells” and “% of >4Ncells” were calculated with the assistance of an Activity Base 5.1ca software and dose curves were generated using an XLFit software. With XLFit, final EC50 IP and EC50 transit values, as well as the Max and Min, were calculated for each curve.
For the compound `COc1cnc2c(Oc3ccc(Nc4nnc(N5CCCCCC5)c5ccccc45)cc3)ccnc2c1` [Example 32, 4-(azepan-1-yl)-N-(4-(7-methoxy-1,5-naphthyridin-4-yloxy)phenyl)phthalazin-1-amine], the EC50 was determined as 0.036 µM. Same read-out and setting: with `COc1cnc2c(Oc3ccc(Nc4nnc(N5CCN(C)CC5)c5ccccc45)cc3)ccnc2c1` [compound 85] the figure was 0.085 µM; with `COc1cnc2c(Oc3ccc(Nc4nnc(-c5ccccc5)c5ccccc45)cc3)ccnc2c1` [compound 79, N-(4-((7-(methyloxy)-1,5-naphthyridin-4-yl)oxy)phenyl)-4-phenyl-1-phthalazinamine], 0.041 µM; with `N#Cc1ccc2c(Oc3ccc(Nc4nnc(-c5cccc(O)c5)c5ccccc45)cc3)ccnc2c1` [compound 93], 0.025 µM. The same measure, in the same setting: the figure for `COc1cnc2c(Oc3cnc(Nc4nnc(-c5ccccc5)c5ccccc45)nc3)ccnc2c1` [compound 84] is 0.485 µM; for `COc1cc2nccc(Oc3ccc(Nc4ncc(-c5ccccc5)c5ccccc45)cc3)c2cn1` [compound 145] it is more than 1.2 µM. The same measure, in the same setting: with `COc1ccc2c(Oc3ccc(Nc4nnc(-c5cccc(OC)n5)c5ccccc45)cc3)ccnc2c1` [compound 100] the figure was 0.02 µM; with `COc1cnc2c(Oc3ccc(Nc4nnc(-c5ccc(OC(C)C)cc5)c5ccccc45)cc3)ccnc2c1` [compound 137], 0.85 µM. As for `COc1cc2nccc(Sc3ccc(Nc4nnc(-c5ccccc5)c5ccccc45)cc3)c2cc1OC` [compound 104], the EC50 came out at 0.02 µM. Same read-out and setting: the figure for `COc1cc2nccc(Oc3ccc(Nc4nnc(-c5ccccc5)c5ccccc45)cc3)c2cc1OC` [compound 90] is 0.013 µM; for `Brc1ccc2c(Oc3ccc(Nc4nnc(-c5ccccc5)c5ccccc45)cc3)ccnc2c1` [compound 133] it is 0.116 µM.

Staying with this assay, now noted: Homo sapiens, HeLa, HeLa cells, 4N ploidy, average, read-out: 24h_4NPloidy EC50_IP (uM Avg).
Regarding `COc1cnc2c(Oc3ccc(Nc4nnc(N5CC[C@H]6CCCC[C@@H]6C5)c5ccccc45)cc3)ccnc2c1` [compound 586], the EC50 stood at 0.028 µM. Consider `N#Cc1ccc2c(Oc3ccc(Nc4nnc(-c5ccccc5)c5ccccc45)cn3)ccnc2c1` [compound 174], for which the EC50 was not below 1.2 µM. Regarding `COc1cnc2c(Oc3ccc(Nc4nnc(-c5c(C)nn(C)c5C)c5ccccc45)cc3)ccnc2c1` [compound 261], the EC50 was more than 1.2 µM. Consider `COc1ccc2nccc(Oc3ccc(Nc4nnc(-c5cc(C)cs5)c5ccccc45)cc3)c2n1` [compound 552], for which the EC50 came to 0.01 µM. On the same count and under the same terms, with `COc1ccc2c(Oc3ccc(Nc4nnc(-c5ccccc5)c5c4CCC5)cc3)ccnc2c1` [compound 368] the figure was 0.021 µM. In the case of `c1ccc(-c2nnc(Nc3ccc(Sc4ccnc5ccsc45)cc3)c3ccccc23)cc1` [compound 355], the EC50 was 0.015 µM.

Regarding `N#Cc1ccc2c(Sc3ccc(Nc4nnc(-c5ccc(Cl)cc5)c5ccccc45)cc3)ccnc2c1` [compound 248, 4-((4-((4-(4-chlorophenyl)-1-phthalazinyl)amino)phenyl)thio)-7-quinolinecarbonitrile], the EC50 worked out at 0.022 µM. On the same count and under the same terms, with `O=C(c1cc2nccc(Oc3ccc(Nc4nnc(-c5ccc(Cl)cc5)c5ccccc45)cc3)c2s1)N1CCOCC1` [compound 259] the figure was 0.051 µM. On the same count and under the same terms, with `Clc1ccc(-c2nnc(Nc3ccc(Sc4ccnc5ccncc45)cc3)c3ccccc23)cc1` [compound 426] the figure was 0.008 µM; with `COc1cnc2c(Oc3ccc(Nc4nnc(-c5ncc(C)s5)c5ccccc45)cc3)ccnc2c1` [compound 189], 0.191 µM; with `COc1cnc2c(Sc3ccc(Nc4nnc(N5CCC(F)(F)CC5)c5ccccc45)cc3)ccnc2c1` [compound 531], 0.049 µM. On the same count and under the same terms, the figure for `Fc1cc(F)c2c(Sc3ccc(Nc4nnc(-c5ccc(Cl)cc5)c5ccccc45)cc3)ccnc2c1` [compound 342] is 0.044 µM; for `Cc1ccc(-c2nnc(Nc3ccc(Sc4ccnc5cc(C#N)oc45)cc3)c3ccccc23)cc1N` [compound 490] it is 0.009 µM; for `COc1cnc2c(Sc3ccc(Nc4nnc(N5CCN(C(C)=O)CC5)c5ccccc45)cc3)ccnc2c1` [compound 608] it is 0.016 µM.

As for `COc1cnc2c(Oc3ccc(Nc4nnc(-c5ccc6c(ccn6C)c5)c5ccccc45)cc3)ccnc2c1` [compound 204, 4-(1-methyl-1H-indol-5-yl)-N-(4-((7-(methyloxy)-1,5-naphthyridin-4-yl)oxy)phenyl)-1-phthalazinamine], the EC50 came out at 0.021 µM. On the same count and under the same terms, with `COc1cnc2c(Oc3ccc(Nc4nnc(-c5nccn5C)c5ccccc45)cc3)ccnc2c1` [Example 30, N-(4-(7-methoxy-1,5-naphthyridin-4-yloxy)phenyl)-4-(1-methyl-1H-imidazol-2-yl)phthalazin-1-amine] the figure was more than 1.2 µM; with `N#Cc1cnc2c(Oc3ccc(Nc4nnc(-c5ccccc5)c5ccccc45)cc3)ccnc2c1` [Example 44, 8-(4-(4-phenylphthalazin-1-ylamino)phenoxy)-1,5-naphthyridine-3-carbonitrile], more than 1.2 µM; with `CCc1cc(-c2ccc(Cl)cc2)nnc1Nc1ccc(Oc2ccnc3cc(OC)cnc23)cc1` [compound 256], 0.049 µM.

As for `COCCCNc1nnc(Nc2ccc(Sc3ccnc4cc(OC)cnc34)cc2)c2ccccc12` [compound 535], the EC50 turned out to be 0.026 µM. Same read-out and setting: the figure for `C[Si](C)(C)c1cc2nccc(Sc3ccc(Nc4nnc(Cl)c5ccccc45)cc3)c2o1` [compound 484] is more than 1.2 µM; for `Cc1ccc(-c2nnc(Nc3ccc(Sc4ccnc5ccoc45)cc3)c3ccccc23)cc1F` [Example 398, 4-(3-Fluoro-4-methylphenyl)-N-(4-(furo[3,2-b]pyridin-7-ylthio)phenyl)phthalazin-1-amine] it is 0.009 µM. Same read-out and setting: the figure for `Fc1cc(F)c2c(Oc3ccc(Nc4nnc(-c5ccccc5)c5ccccc45)cc3)ccnc2c1` [compound 276] is 0.054 µM; for `COc1cnc2c(Sc3ccc(Nc4nnc(N5CCN6CCC[C@@H]6C5)c5ccccc45)cc3)ccnc2c1` [compound 582] it is 0.006 µM; for `COc1cnc2c(Oc3ccc(Nc4nnc(-c5cnn(C)c5)c5ccccc45)cc3)ccnc2c1` [compound 216] it is 0.074 µM. With `COc1cnc2c(Sc3ccc(Nc4nnc(-c5ccc6occc6c5)c5ccccc45)cc3)ccnc2c1` [compound 501], the EC50 is 0.014 µM. In the case of `COc1ccc2nccc(Sc3ccc(Nc4nnc(-c5ccc(Cl)cn5)c5ccccc45)cc3)c2n1` [compound 550], the EC50 came out at 0.016 µM.

On to `Brc1cnc2c(Oc3ccc(Nc4nnc(-c5ccccc5)c5ccccc45)cc3)ccnc2c1` [compound 245], for which the EC50 was 0.381 µM.

For `CCc1cc(-c2ccc(C)cc2)nnc1Nc1ccc(Sc2ccnc3cc(OC)cnc23)cc1` [compound 322], the EC50 came out at 0.017 µM. The same measure, in the same setting: with `Cc1csc(-c2nnc(Nc3ccc(Oc4ccnc5cccnc45)cc3)c3cc(F)c(F)cc23)c1` [compound 510] the figure was 0.017 µM. On the same count and under the same terms, the figure for `CCc1cc(-c2ccc(C)cc2)nnc1Nc1ccc(Oc2ccnc3cc(OC)cnc23)cc1` [compound 199] is 0.018 µM; for `COc1cnc2c(Sc3ccc(Nc4nnc(-c5cc(C)cs5)c5ccccc45)cc3)ccnc2c1` [compound 271, N-(4-(7-methoxy-1,5-naphthyridin-4-ylthio)phenyl)-4-(4-methylthiophen-2-yl)phthalazin-1-amine] it is 0.004 µM.

Regarding `COc1ccc2nccc(Sc3ccc(Nc4nnc(N5CCCCC5)c5ccccc45)cc3)c2n1` [compound 548], the EC50 came to 0.036 µM.

As to `N#Cc1ccc2nccc(Oc3ccc(Nc4nnc(-c5ccccc5)c5ccccc45)cc3)c2c1` [compound 592], the EC50 was found to be 0.147 µM. With `COc1cnc2c(Sc3ccc(Nc4nnc(-c5cccc(Cl)c5)c5ccccc45)cc3)ccnc2c1` [compound 516], the EC50 came to 0.025 µM.

Regarding `COc1cnc2c(Oc3ccc(Nc4nnc(-c5cn[nH]c5)c5ccccc45)cc3)ccnc2c1` [compound 212], the EC50 turned out to be 0.501 µM. In the case of `c1ccc2c(Sc3ccc(Nc4nnc(-c5ccc6c(c5)OCO6)c5ccccc45)cc3)ccnc2c1` [compound 517], the EC50 amounted to 0.011 µM.

As to `Cc1noc(-c2cc3nccc(Sc4ccc(Nc5nnc(-c6ccc(Cl)cc6)c6ccccc56)cc4)c3s2)n1` [compound 323], the EC50 was found to be 0.131 µM. Turning to `Cc1csc(-c2nnc(Nc3ccc(Oc4ccnc5ccsc45)cc3)c3ccccc23)c1` [compound 289], the EC50 was 0.073 µM.

As to `CCc1cc(-c2ccc(Cl)cc2)nnc1Nc1ccc(Oc2ccnc3cc(OC)cnc23)nc1` [compound 275, 6-(4-chlorophenyl)-4-ethyl-N-(6-(7-methoxy-1,5-naphthyridin-4-yloxy)pyridin-3-yl)pyridazin-3-amine], the EC50 came to 0.161 µM.

For `Cc1ccc(-c2nnc(Nc3ccc(Oc4ccnc5cc(-c6cncn6C)sc45)cc3)c3ccccc23)nc1` [compound 255], the EC50 was found to be 0.014 µM. Same read-out and setting: with `COc1cnc2c(Oc3ccc(Nc4nnc(-c5cc(C)no5)c5ccccc45)cc3)ccnc2c1` [compound 350] the figure was 0.077 µM.

The same assay, now with this note: Homo sapiens, HeLa, HeLa cells, average, read-out: 24h_4NPloidy EC50_IP (uM Avg).
In the case of `Clc1ccc(-c2nnc(Nc3ccc(Oc4ccnc5cc(OCc6ccccc6)cnc45)cc3)c3ccccc23)cc1` [compound 610], the EC50 amounted to 0.014 µM.
